Assay results: patent US6403602B1 (priority 1997, dated 2002)
Counter-ions that a name gives are not always drawn. Like-named read-outs stand apart in the source and are kept apart here.

Columns and labels:
[1] = target: mu opioid receptors (Cavia porcellus, UniProt A0ACM8Q262); assay type: binding, guinea pig; conditions: read-out: Ki μ [^3H]DAMGO
[2] = target: T1, delta receptors (Cavia porcellus, UniProt A0A286XTF2); experiment: biochemical; assay type: binding, guinea pig
T1 construct: The brains were then homogenized in 50 mM Tris HCl, buffer pH 7.7, using a Polytron; from tissue; host or cells: guinea pig brain homogenate (membrane pellet)

[3] = target: T2, kappa1 sites (Cavia porcellus, UniProt P41144); experiment: biochemical; assay type: binding, guinea pig
T2 construct: The brains were then homogenized in 50 mM Tris HCl, buffer pH 7.7, using a Polytron; from tissue; host or cells: guinea pig brain homogenate (membrane pellet)

[4] = tested on: κ2 sites; assay type: binding, guinea pig
[5] = target: kappa3 receptors; assay type: binding, guinea pig; conditions: read-out: Ki κ3 [^3H]NalBzoH
[6] = tested on: electrically stimulated guinea pig ileum; experiment: tissue or blood; assay type: cell-based
[7] = tested on: mu receptors; assay type: cell-based, guinea pig; as to Guinea Pig Ileum Ke of CTAP: unit not given here
[8] = target: T3, kappa receptors (Cavia porcellus, UniProt P41144); assay type: cell-based, guinea pig; as to Guinea Pig Ileum Ke of Nor-BNI: unit not given here
T3 construct: The longitudinal muscle with the myenteric plexus attached was gently separated from the underlying circular muscle; from tissue; host or cells: guinea pig ileum longitudinal muscle with myenteric plexus

[9] = tested on: electrically stimulated mouse vas deferens; experiment: tissue or blood; assay type: cell-based
[10] = target: T4, delta receptors (Mus musculus, UniProt P32300); assay type: cell-based
T4 construct: The vas deferens from Swiss-Webster mice (30-35 g) were prepared as described by Hughes et al; from tissue; host or cells: mouse vas deferens (Swiss-Webster)

[11] = read-out: Ki δ, experiment done with [^3H]DPDPE
[12] = read-out: Guinea Pig Ileum IC50

T1 sequence (A0A286XTF2 1-366): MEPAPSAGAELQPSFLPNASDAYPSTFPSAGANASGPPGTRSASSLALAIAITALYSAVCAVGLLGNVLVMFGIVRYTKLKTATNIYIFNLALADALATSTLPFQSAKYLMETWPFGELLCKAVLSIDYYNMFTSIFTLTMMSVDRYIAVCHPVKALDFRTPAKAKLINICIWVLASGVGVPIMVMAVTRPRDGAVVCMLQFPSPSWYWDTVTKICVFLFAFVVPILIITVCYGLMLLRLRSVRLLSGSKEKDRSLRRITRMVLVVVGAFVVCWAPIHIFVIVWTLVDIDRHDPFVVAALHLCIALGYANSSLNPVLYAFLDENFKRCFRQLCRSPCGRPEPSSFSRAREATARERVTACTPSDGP
mu opioid receptors, sequence (A0ACM8Q262 1-400): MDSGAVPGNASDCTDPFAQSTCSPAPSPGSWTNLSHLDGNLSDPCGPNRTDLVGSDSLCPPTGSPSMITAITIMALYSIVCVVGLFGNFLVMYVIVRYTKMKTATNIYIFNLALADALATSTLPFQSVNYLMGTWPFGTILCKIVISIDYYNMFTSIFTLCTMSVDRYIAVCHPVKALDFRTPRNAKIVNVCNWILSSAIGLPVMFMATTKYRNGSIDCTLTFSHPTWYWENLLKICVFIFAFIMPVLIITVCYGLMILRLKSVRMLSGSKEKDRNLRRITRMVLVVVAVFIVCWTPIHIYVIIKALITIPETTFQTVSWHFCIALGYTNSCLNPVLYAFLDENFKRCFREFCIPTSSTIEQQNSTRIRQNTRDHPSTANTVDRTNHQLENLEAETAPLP
T2 sequence (P41144 whole entry): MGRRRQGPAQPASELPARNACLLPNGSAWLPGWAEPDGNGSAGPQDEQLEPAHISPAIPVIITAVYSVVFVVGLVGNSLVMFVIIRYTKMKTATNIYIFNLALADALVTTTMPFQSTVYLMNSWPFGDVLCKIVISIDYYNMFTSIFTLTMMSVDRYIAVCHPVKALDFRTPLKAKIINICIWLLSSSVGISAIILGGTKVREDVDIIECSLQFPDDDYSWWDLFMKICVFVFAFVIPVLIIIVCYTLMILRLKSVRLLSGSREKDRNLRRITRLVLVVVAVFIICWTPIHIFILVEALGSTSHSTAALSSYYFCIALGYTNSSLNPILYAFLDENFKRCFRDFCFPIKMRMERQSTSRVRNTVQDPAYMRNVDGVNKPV
T3 sequence (P41144 whole entry): as above
T4 sequence (P32300 whole entry): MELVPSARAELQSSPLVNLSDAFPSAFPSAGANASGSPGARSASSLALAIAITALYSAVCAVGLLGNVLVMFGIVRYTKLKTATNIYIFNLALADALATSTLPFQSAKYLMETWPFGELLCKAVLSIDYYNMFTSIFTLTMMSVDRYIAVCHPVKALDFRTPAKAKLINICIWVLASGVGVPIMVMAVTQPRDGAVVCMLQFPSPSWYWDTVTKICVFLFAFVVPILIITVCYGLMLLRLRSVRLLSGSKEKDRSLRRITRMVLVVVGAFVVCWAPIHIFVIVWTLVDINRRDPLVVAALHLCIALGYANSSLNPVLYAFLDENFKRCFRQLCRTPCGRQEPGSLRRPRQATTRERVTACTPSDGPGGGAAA

Molecule	Ki [1] [nM]	Ki [2, 11] [nM]	Ki ([3]; read-out: Ki κ1 [^3H]U69,593) [nM]	IC50 [4] [nM]	Ki [5] [nM]	further results
CCCN1CCCC(c2cccc(O)c2)C1 (single isomer, unassigned; (+)) [(+) 3-PPP-HCl]	3450	> 10000	388	> 10000	782	
CC1C2Cc3ccc(O)cc3C1(C)CCN2CC1CC1 (single isomer, unassigned; (+)) [(+) Cyclazocine]	659	> 10000	383	> 10000	786	
C=CCN1CC[C@@]2(C)c3cc(O)ccc3CC1[C@@H]2C.Cl (single isomer, unassigned; (-)) [(−) SKF 10,047-HCl]	0.7	3.8	0.3	132		IC50 [6, 12]: 10.5 nM; Guinea Pig Ileum DR with CTAP [7]: 0.44 ± 0.02; Guinea Pig Ileum DR with Nor-BNI [8]: 273.10; Guinea Pig Ileum Ke of Nor-BNI [8]: 0.08 ± 0.01
CC[C@@]12CCN(CC3CC3)C(C(=O)c3ccc(O)cc31)[C@@H]2C (single isomer, unassigned; (-)) [(−)EKC]	0.4			25.2	3.9	Ki ([2]; read-out: Ki δ [^3H]Cl-DPDPE): 2 nM; IC50 ([6]; read-out: IC50 (nM), Guinea Pigs Ileum): 0.15 nM; DR with CTAP [7]: 0.62; IC50 ([9]; read-out: IC50 (nM), Mouse Vas Deferens): 5.31 nM; DR with Naltrindole [10]: 0.90
CC(C)=CCN1CC[C@]2(C)c3cc(O)ccc3C[C@H]1[C@H]2C [(+) Pentazocine-succinate]	595	3480	206	5270	420	
C=CCN1CC[C@@]2(C)c3cc(O)ccc3C[C@@H]1[C@@H]2C [(+) SKF 10,047-HCl]	2120	> 10000	2890	> 10000	> 1000	
O=C1/C(=C/c2ccccc2)C[C@@]2(O)[C@H]3Cc4ccc(O)c5c4[C@@]2(CCN3CC2CC2)[C@H]1O5 [BNTX]	1.9		7.1	822		
CCC(=O)Oc1ccc2c3c1O[C@H]1[C@@H](OS(=O)(=O)O)C=C[C@H]4[C@@H](C2)N(C)CC[C@@]341 [NIDA # 20,270, 3-O-Propionylmorphine-6-O-sulfate]				> 10000	19.9	Ki [2]: 40 nM; Ki [3]: 252 nM; IC50 ([6]; Cavia porcellus, read-out: Guinea Pig Ileum IC50 (nM)): 154 ± 48.6 nM; Guinea Pig Ileum Ke of CTAP [7]: 37.58 ± 2.09; Guinea Pig Ileum Ratio (CTAP) [7]: 0.515; Guinea Pig Ileum DR with Nor-BNI [8]: 1.26 ± 0.33; Guinea Pig Ileum Ke of Nor-BNI [8]: 40.73; Guinea Pig Ileum Ratio (Nor-BNI) [8]: 0.002; inhibition at 20 µM ([9]; Mus musculus, read-out: Mouse vas deferens maximum inhibition): 20%
Oc1ccc2c3c1O[C@H]1c4oc5ccccc5c4C[C@@]4(O)[C@@H](C2)N(CC2CC2)CC[C@]314 [NTB]	6.5		10.2	406	7.5	Ki ([2]; read-out: Ki δ [^3H]Cl-DPDPE): 0.06 nM
Oc1ccc2c3c1O[C@H]1c4[nH]c5c(c4C[C@@]4(O)[C@@H](C2)N(CC2CC2)CC[C@]314)C[C@@]1(O)[C@H]2Cc3ccc(O)c4c3[C@@]1(CCN2CC1CC1)[C@H]5O4 [Nor-BNI (HCl)2, nor-binaltorphimine]			0.3	37.5	15	Ki [2]: 6.3 nM
c1ccc(C2(N3CCCCC3)CCCCC2)cc1 [PCP-HCl]	> 10000	> 10000	> 10000	> 10000	> 10000	
c1csc(C2(N3CCCCC3)CCCCC2)c1 [TCP-HCl]	2200	> 10000	2040	> 10000	> 10000	
(−) Pentazocine-succinate	5.7		4.4	424	12.4	IC50 [6, 12]: 170 nM; Guinea Pig Ileum DR with CTAP [7]: 0.73 ± 0.38; Guinea Pig Ileum DR with Nor-BNI [8]: 6.10; Guinea Pig Ileum Ke of Nor-BNI [8]: 4.00 ± 0.8
